Experimental data: patent publication US20200179369A1, “TREATMENT OF DIABETIC NEPHROPATHY” (TAKEDA GMBH, priority 2015, published 2020)

Key:
[1] = tested on: connective tissue growth factor (CTGF) mRNA; experiment: TGF-β-induced mRNA expression of connective tissue growth factor (CTGF) in human mesangial cells; assay type: cell-based; details: 0.001-10 μM with forskolin 1 μM and TGF-β 3 ng/mL, 6 h
Protocol: (§1) Human mesangial cells were purchased from DS Pharma Biomedical (US). Compound A was obtained from Takeda GmbH, Konstanz, Germany. Forskolin and dimethyl sulfoxide (DMSO) were purchased from Wako Pure Chemical Industries, Ltd (Japan). Recombinant human TGF-β was purchased from R&D systems (USA).
(§2) On day 0, human mesangial cells were seeded at a cell density of 2×10^5 cells/well in CSC complete medium (Cell Systems, USA) on type 1 collagen-coated 24-well plate (AGC TECHNO GLASS Co. Ltd., Japan) in an atmosphere of 95% air and 5% CO2 at 37° C. On day 1, the cells were serum starved with CMC medium which is not containing serum and growth factors. On day 2, Compound A at final concentrations of 0.001, 0.01, 0.1, 1 and 10 μM or DMSO (control) was added to the culture medium. […] For the measurement of mRNA levels of type 1 collagen α1 chain and fibronectin, total RNA isolated at 24 hours after forskolin/TGF-β stimulation was used. mRNA expression levels were measured by quantitative real-time RT-PCR methods with TaqMan gene expression master mix and ABI PRISM 9700 (Life Technologies, USA) with target mRNA specific primer and probe sets [Human connective tissue growth factor (Hs1026927_g1); Human plasminogen activator inhibitor-1 (Hs00167155_m1); Human type 1 collagenal chain (Hs00164004_m1); Human fibronectin (HS00365052_m1); Humanglyceraldehyde 3-phosphate dehydrogenase (HS2758991_g1)]. […]

[2] = tested on: plasminogen activator inhibitor-1 (PAI-1) mRNA; experiment: TGF-β-induced mRNA expression of plasminogen activator inhibitor-1 (PAI-1) in human mesangial cells; assay type: cell-based; details: 0.001-10 μM with forskolin 1 μM and TGF-β 3 ng/mL, 6 h
Protocol: as §1, §2

human mesangial cells = experiment: Intracellular cAMP level in human mesangial cells (AlphaScreen cAMP functional assay); assay type: cell-based; details: co-treatment with forskolin 1 μM
Protocol: as §1
On day 0, human mesangial cells were seeded at a cell density of 2×10^5 cells/well in CSC complete medium (Cell Systems, USA) on type 1 collagen-coated 24-well plate (AGC TECHNO GLASS Co. Ltd., Japan) in an atmosphere of 95% air and 5% CO2 at 37° C. On day 1, the cells were serum starved with CSC medium which is not containing serum and growth factors. On day 2, Compound A at final concentrations of 0.001, 0.01, 0.1, 1 and 10 μM or DMSO (control) was added to the culture medium. […]
For evaluation of the effects of Compound A on intracellular cAMP level, statistical differences between DMSO-treatment and Compound A treatment groups were analyzed with one-tailed Williams' test. For the evaluation of the effects of Compound A on mRNA expression levels, statistical differences between forskolin/TGF-β-treatment and Compound A treatment groups were analyzed with one-tailed Williams' test. To confirm the mRNA induction by TGF-β, mRNA expression levels between untreated and TGF-β-treated group were analyzed by Students t-test. […]

[3] = tested on: uninephrectomized db/db mice; experiment: Diabetic nephropathy in uninephrectomized db/db mice, 8 week treatment starting 12 weeks after the uninephrectomy; assay type: in vivo; details: 8 weeks starting 12 weeks after uninephrectomy
Protocol: The experimental protocol is similar to the experimental protocol described above with the exception that the 8 week treatment with Compound A or irbesartan was started not already at 4 weeks after the uninephrectomy, but only 12 weeks after the uninephrectomy (i.e. when the increase of urinary albumin/creatinine ratio (UACR) is already in a much more advanced stage). Roflumilast was not used as a comparator in this experiment.
Compound A (1, 3 and 10 mg/kg, QD) and irbesartan (50 and 100 mg/kg, QD) were suspended in 0.5% methyl cellulose solution and orally administered to mice for 8 weeks starting 12 weeks after the uninephrectomy.
For evaluation of the effects of Compound A, statistical differences between vehicle- and Compound A treated groups were analyzed with one-tailed Williams' test for GHB, PG and BW and one-tailed Shirley-Williams' test for UACR. For irbesartan, statistical differences between vehicle- and irbesartan treated groups were analyzed with one-tailed Williams' test for UACR, GHb, PG and BW. The P-values less than 0.025 were considered statistically significant in one-tailed Williams' test or one-tailed Shirley-Williams' test.

[4] = tested on: type 1 collagen α1 chain mRNA; experiment: TGF-β-induced mRNA expression of type 1 collagen α1 chain in human mesangial cells; assay type: cell-based; details: in the presence of forskolin 1 μM, TGF-β 3 ng/mL, 24 h
Protocol: as §1, §2

fibronectin mRNA = experiment: TGF-β-induced mRNA expression of fibronectin in human mesangial cells; assay type: cell-based; details: in the presence of forskolin 1 μM, TGF-β 3 ng/mL, 24 h
Protocol: as §1, §2

CCOc1cc2c(cc1OC)C(c1ccc(=O)n(C)c1)=N[C@@H]1CC[C@@H](O)C[C@H]21 [Compound A, 5-((2R,4aR,10bR)-9-Ethoxy-2-hydroxy-8-methoxy-1,2,3,4,4a,10b-hexahydro-phenanthridin-6-yl)1-methyl-1H-pyridin-2-one]
effect on TGF-β-induced mRNA expression of CTGF [1]: further suppressed by the treatment with Compound A in a concentration-dependent manner | effect on TGF-β-induced mRNA expression of PAI-1 [2]: further suppressed by the treatment with Compound A in a concentration-dependent manner | effect on intracellular cAMP accumulation (human mesangial cells; 0.001-10 μM): further enhanced intracellular cAMP accumulation in a concentration dependent manner | concentration at which the significant effect on intracellular cAMP accumulation was observed (human mesangial cells): ≥ 0.1 µM | effect on urinary albumin/creatinine ratio (UACR) ([3]; 1 mg/kg QD oral): suppressed the increase of UACR | effect on urinary albumin/creatinine ratio (UACR) ([3]; 3 mg/kg QD oral): reduced the UACR in the 3 mg/kg and 10 mg/kg group below the value at the beginning of the 8 weeks treatment period | effect on glucose plasma levels (PG) ([3]; 10 mg/kg QD oral): statistical significant effect | effect on glycosylated hemoglobin (GHb) ([3]; 10 mg/kg QD oral): statistical significant effect | effect on urinary albumin/creatinine ratio (UACR) ([3]; 10 mg/kg QD oral): reduced the UACR in the 3 mg/kg and 10 mg/kg group below the value at the beginning of the 8 weeks treatment period | effect on body weight (BW) ([3]; 1, 3 and 10 mg/kg QD oral): Neither Compound A nor Irbesartan affected the body weight | effect on glucose plasma levels (PG) ([3]; 1, 3 and 10 mg/kg QD oral): reduced GHb and PG in a dose-dependant manner | effect on glycosylated hemoglobin (GHb) ([3]; 1, 3 and 10 mg/kg QD oral): reduced GHb and PG in a dose-dependant manner | concentration at which the inhibitory effect on mRNA expression of type 1 collagen α1 chain was further enhanced [4]: ≥ 0.1 µM | concentration at which the inhibitory effect on mRNA expression of fibronectin was further enhanced (fibronectin mRNA): ≥ 0.1 µM
